Test results published in patent US20230233650A1, “NOVEL FATTY ACID MODIFIED UROCORTIN 2 DERIVATIVES AND THE USES THEREOF” (Novo Nordisk A/S, priority 2021, published 2023).
Numbered stars: 1 amine (or outer) side, 2 acyl side, 3 side chain; on linkers, the order of the positions; unused ones are H or OH. Side chains are listed from the residue outwards. Peptide text beside a SMILES is read from it. * marks the point of attachment. C20 diacid = O=C(O)CCCCCCCCCCCCCCCCCCC(=O)*; γGlu = O=C(O)[C@H](CCC(=O)[*:2])N[*:1]; AEEA = NCCOCCOCC(=O)O

Molecular target: T1, Human CRF2 receptor (Homo sapiens, UniProt Q13324)
T1 construct: host or cells: CHO-K1 (membrane preparation)
T1 sequence (Q13324 1-411): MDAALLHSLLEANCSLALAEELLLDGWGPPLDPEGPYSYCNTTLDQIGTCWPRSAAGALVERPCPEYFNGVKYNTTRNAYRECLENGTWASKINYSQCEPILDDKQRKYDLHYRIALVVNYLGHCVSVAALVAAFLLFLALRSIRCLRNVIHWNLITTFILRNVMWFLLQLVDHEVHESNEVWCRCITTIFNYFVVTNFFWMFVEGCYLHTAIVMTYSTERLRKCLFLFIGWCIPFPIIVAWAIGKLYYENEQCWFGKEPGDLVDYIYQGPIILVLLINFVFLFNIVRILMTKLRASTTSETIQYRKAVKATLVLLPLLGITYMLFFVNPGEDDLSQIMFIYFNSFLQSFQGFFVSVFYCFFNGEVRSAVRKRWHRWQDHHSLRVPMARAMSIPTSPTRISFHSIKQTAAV
Test: CRF2 receptor binding, scintillation proximity assay (SPA)
Details: displacement of [125I]-Sauvagine, CHO-K1 cell membranes
Method: The purpose of this example was to test the in vitro binding of the compounds of the invention to receptor subtypes CRF1 and CRF2. The in vitro binding of the compounds was determined in a scintillation proximity assay (SPA) as described below. The native, human Ucn1 and Ucn2 peptides are included as references. Scintillation Proximity Assay: […] Both cell lines were cultured at 37° C. in a humidified atmosphere with 5% CO2. […] Membranes were prepared by the following protocol: cultured cells were washed twice with cold Dulbecco’s phosphate buffered saline and detached using TrypLE™ (ThermoFisher) and transferred to tubes and centrifuged for 5 minutes at 1000 g at +4° C. Pellets were resuspended in ice cold homogenization buffer (20 mM Hepes pH 7.1, 5 mM MgCl2, 1 mg/ml Bacitracin with 2 complete EDTA-free protease inhibitor cocktail tablets/50 ml (Roche)) and then homogenized for 30 seconds using a Ultra-Turrax T25 tissue homogenizer (IKA) at medium speed. The homogenate was centrifuged at 35,000 g for 15 minutes at +4° C. using an ultracentrifuge, and the supernatant was discarded, and fresh homogenization buffer was added. Homogenization of the pellet was repeated a total of three times. The final pellet was resuspended in a few millilitres of homogenization buffer and protein concentration was determined using the Bradford method. The membrane preparation was transferred to cryotubes, and the aliquots were stored at -80° C. Each membrane preparation was subsequently titrated to give an appropriate window in the assay. Test procedure: […] Plates were sealed and incubated at 25° C. for 2 hours in a plate shaker set at 400 rpm and thereafter centrifuged at 1500 rpm for 10 minutes. SPA plates were let to stand at room temperature for about 16 hours prior to reading on microplate scintillation counter. Displacement of radioligand was measured as reduction in luminescence, and IC50 values were calculated by nonlinear regression analysis of four parameter sigmoidal dose-response curves.

IC50 [nM] | SMILES
1.14 | CC[C@H](C)[C@H](NC(=O)[C@H](CCC(=O)O)NC(=O)[C@H](C)NC(=O)[C@H](CC(N)=O)NC(=O)[C@@H](NC(=O)[C@@H](NC(=O)[C@H](C)NC(=O)[C@H](CCC(N)=O)NC(=O)[C@H](CCC(=O)O)NC(=O)[C@H](CCCNC(=N)N)NC(=O)[C@H](C)NC(=O)[C@H](C)NC(=O)[C@H](CCCNC(=N)N)NC(=O)[C@H](C)NC(=O)[C@H](CCCNC(=N)N)NC(=O)[C@H](C)NC(=O)[C@H](CCC(N)=O)NC(=O)[C@H](CCC(=O)O)NC(=O)[C@H](CC(C)C)NC(=O)[C@H](CC(C)C)NC(=O)[C@@H](NC(=O)[C@H](CCC(N)=O)NC(=O)[C@H](CC(C)C)NC(=O)[C@H](CC(C)C)NC(=O)CNC(=O)[C@@H](NC(=O)[C@@H]1CCCN1C(=O)[C@@H](NC(=O)[C@H](CC(=O)O)NC(=O)[C@H](CC(C)C)NC(=O)[C@H](CO)NC(=O)[C@H](CC(C)C)NC(=O)[C@@H](NC(=O)[C@@H](NC(=O)[C@@H](N)CCCCNC(=O)COCCOCCNC(=O)COCCOCCNC(=O)CC[C@H](NC(=O)CC[C@H](NC(=O)CC[C@H](NC(=O)CCCCCCCCCCCCCCCCCCC(=O)O)C(=O)O)C(=O)O)C(=O)O)[C@@H](C)CC)C(C)C)C(C)C)[C@@H](C)CC)[C@@H](C)CC)[C@@H](C)O)[C@@H](C)O)C(=O)N[C@@H](CC(C)C)C(=O)N[C@@H](C)C(=O)N[C@@H](CCC(=O)O)C(=O)N[C@H](C(N)=O)C(C)C [Compound 3] (H-K([AEEA-AEEA-γGlu-γGlu-γGlu-C20 diacid])IVLSLDVPIGLLQILLEQARARAAREQATTNAEILAEV-NH2)
1.47 | CC[C@H](C)[C@H](NC(=O)[C@H](CCC(=O)O)NC(=O)[C@H](C)NC(=O)[C@H](CC(N)=O)NC(=O)[C@@H](NC(=O)[C@@H](NC(=O)[C@H](C)NC(=O)[C@H](CCC(N)=O)NC(=O)[C@H](CCC(=O)O)NC(=O)[C@H](CCCNC(=N)N)NC(=O)[C@H](C)NC(=O)[C@H](C)NC(=O)[C@H](CCCNC(=N)N)NC(=O)[C@H](C)NC(=O)[C@H](CCCNC(=N)N)NC(=O)[C@H](C)NC(=O)[C@H](CCC(N)=O)NC(=O)[C@H](CCC(=O)O)NC(=O)[C@H](CC(C)C)NC(=O)[C@H](CC(C)C)NC(=O)[C@@H](NC(=O)[C@H](CCC(N)=O)NC(=O)[C@H](CC(C)C)NC(=O)[C@H](CC(C)C)NC(=O)CNC(=O)[C@@H](NC(=O)[C@@H]1CCCN1C(=O)[C@@H](NC(=O)[C@H](CC(=O)O)NC(=O)[C@H](CC(C)C)NC(=O)[C@H](CO)NC(=O)[C@H](CC(C)C)NC(=O)[C@@H](NC(=O)[C@@H](NC(=O)[C@@H](N)CCCCNC(=O)COCCOCCNC(=O)COCCOCCNC(=O)CC[C@H](NC(=O)CC[C@H](NC(=O)CC[C@H](NC(=O)CCCCCCCCCCCCCCCCCCC(=O)O)C(=O)O)C(=O)O)C(=O)O)[C@@H](C)CC)C(C)C)C(C)C)[C@@H](C)CC)[C@@H](C)CC)[C@@H](C)O)[C@@H](C)O)C(=O)N[C@@H](CC(C)C)C(=O)N[C@@H](CCC(=O)O)C(=O)N[C@@H](CCCNC(=N)N)C(=O)N[C@H](C(N)=O)C(C)C [Compound 4] (H-K([AEEA-AEEA-γGlu-γGlu-γGlu-C20 diacid])IVLSLDVPIGLLQILLEQARARAAREQATTNAEILERV-NH2)
